Data taken from patent US20230338362A1 (priority 2020, published 2023).
Peptide text beside a SMILES is read from it. * marks the point of attachment. Cbz = O=C(OCc1ccccc1)*; CH2F = FC*

Columns and labels:
[1] = tested on: macrophages treated with SARS-CoV-2 Spike protein; format: cell-based, human; note: test concentration or dose not given here
[2] = tested on: IRAK1, NF-κB, MAPKs, IRAK4 (MyD88 signaling); assay: MyD88 signaling in human macrophages; format: cell-based
[3] = tested on: macrophages treated with SARS-CoV-2 Spike protein; format: cell-based, human; remark: listed apart in the source; note: test concentration or dose not given here
[4] = tested on: VERO-E6 cells enriched for angiotensin converting enzyme 2 receptor (ACE-2); assay: In vitro toxicity, cell viability assay in VERO-E6 cells in the absence of virus; conditions: Table I, positive controls; absence of SARS-CoV-2 virus
SARS-CoV-2 = SARS-CoV-2 inhibition, cell viability assay (CellTiter-Glo) in VERO-E6 cells enriched for ACE-2; format: cell-based; conditions: Table I, positive controls; VERO-E6 cells enriched for ACE-2 plus SARS-CoV-2; read-out: IC50
[5] = human macrophages, through interaction with MyD88

For `O=C(OC[C@H]1O[C@@H](OC(=O)c2cc(O)c(O)c(O)c2)[C@H](OC(=O)c2cc(O)c(O)c(O)c2)[C@@H](OC(=O)c2cc(O)c(O)c(O)c2)[C@@H]1OC(=O)c1cc(O)c(O)c(O)c1)c1cc(O)c(O)c(O)c1`, the “apoptosis by activation of caspase 3” value [1] was “selectively induces apoptosis”, the “apoptosis by caspase 3 activation” value [1] was “not observed to induce apoptosis” and the “NF-κB translocation into the nucleus” value [2] was “inhibited NF-κB translocation into the nucleus”. The “activation of IRAK1, NF-κB, and MAPKs” value [2, 5] was “potently reduced the activation of IRAK1, NF-κB, and MAPKs”, the “expression of IRAK4” value [2, 5] was “increasing expression of IRAK4” and the anti-inflammatory cytokines [3] was “inducing anti-inflammatory cytokines such as IL-10”. For the same compound, the “expression of cytokine modulators / anti-inflammatory cytokines” value [3] was “activated expression of cytokine modulators IL-10 and IFN-γ”, the “expression of pro-inflammatory cytokines” value [3] was “inhibited expression of pro-inflammatory cytokines IL-1α, VEGF, IL-1β, IL-2, IL-4, IL-5, IL-6, IL-8, IL-12p70, IL-13, GM-CSF, GRO, MCP-1, MIP-1α, MIP-1β, MMP-9, RANTES, and TNF-α” and the “expression of the anti-inflammatory cytokine IL-10” value [3] was “increasing expression of the anti-inflammatory cytokine IL-10”. For the same compound, the multiple pro-inflammatory cytokines [3] was “suppressed multiple pro-inflammatory cytokines such as IL-1β, TNF-α, IL-6 IL-8, IL-12, MCP-1 and MIP-1α” and the pro-inflammatory cytokines [3] was “selectively inhibited pro-inflammatory cytokine, such as IL-1α, VEGF, IL-1β, IL-2, IL-4, IL-5, IL-6, IL-8, IL-12p70, IL-13, GM-CSF, GRO, MCP-1, MIP-1α, MIP-1β, MMP-9, RANTES, and TNF-α”.

`CC(C)C[C@H](NC(=O)OCc1ccccc1)C(=O)N[C@@H](CC(C)C)C(=O)N[C@@H](Cc1ccc(O)cc1)C(=O)CF` [Calpain Inhibitor IV, reference compound] (Cbz-Leu-Leu-Tyr-CH2F) showed a CC50 [4] of over 7.17 µM and an IC50 (SARS-CoV-2) of 0.12 µM.

Compound `CCN(CCO)CCCC(C)Nc1ccnc2cc(Cl)ccc12` (stereo not drawn) [Hydroxychloroquine, hydroxychloroquine, reference compound] has a CC50 [4] of over 30 µM.

Work on `CCN(CC)CCCC(C)Nc1ccnc2cc(Cl)ccc12` (stereo not drawn) [Chloroquine, chloroquine, reference compound] yielded a CC50 [4] of over 30 µM.
